# Data reported in patent publication US7479483B2, “Tumor-targeted drug delivery systems and uses thereof” (G. Gaslini Children's Hospital, priority 2003, dated 2009).
# Test system: SH-SY5Y adrenal tumors
# Test: In vivo therapeutic studies, orthotopic neuroblastoma xenograft
# Design: species or system SCID mice
# Conditions: orthotopic SH-SY5Y model; free DXR by standard or metronomic dosing
# Experimental: Five-week-old female SCID mice were purchased from Harlan Laboratories (Harlan Italy-S. Pietro al Natisone, UD). Mice (6-8 mice/group) were anaesthetised and injected with the different NB cell lines (2.5×10^6 cells in 20 μl of HEPES buffer), after laparatomy, in the capsule of the left adrenal gland. […] Mice were monitored at least two times weekly for evidence of tumor development, tumor size was quantified, and evidence of tumor-associated morbidity was noted.
# 2.5×10^6 SH-SY5Y cells were injected orthotopically in the left adrenal gland of mice. […] At various time-points, mice were sacrificed and tumors were measured with calipers. Tumor volumes were calculated by the formula π/6 [w1× (w2)^2], where w1 represented the largest tumor diameter and w2 represented the smallest tumor diameter. The body weight and general physical status of the animals were recorded daily and the mice were terminated when tumor reached 1000-1200 mm^3. […] Weight due to tumor burden was calculated by subtracting the normal wet organ weight from each tumor-bearing organ. In some experiments, mice were monitored routinely for weight loss, and survival times were used as the main criterion for determining treatment efficacy.
# The statistical significance of differential findings between experimental groups and controls was determined by Student's t-test and considered significant if two-tailed P values were <0.05. […]
compound,measurement,value
"COc1cccc2c1C(=O)c1c(O)c3c(c(O)c1C2=O)C[C@@](O)(C(=O)CO)C[C@@H]3O[C@H]1C[C@H](N)[C@H](O)[C@H](C)O1 [free DXR, doxorubicin]",therapeutic effect,lack of therapeutic effect
